According to ChEMBL document CHEMBL1764984 (J Med Chem, 2011):
≈ marks a conversion by molar mass, not a printed value.

How the values were obtained:
[1] = Half life in Beagle dog at 10 mg/kg, po; assay type: ADME, organism-based, Canis lupus familiaris; parameters: dose 10 mg/kg, route oral; conditions: in vivo
[2] = AUC (infinity) in Hanover-Wistar rat at 10 mg/kg, po; assay type: ADME, organism-based; parameters: dose 10 mg/kg, route oral, time infinity; conditions: plasma
[3] = Plasma protein binding in Beagle dog by untrafiltration method; assay type: ADME, cell-free, Canis lupus familiaris; conditions: read-out: PPB (converted)
[4] = Plasma protein binding in Hanover-Wistar rat by untrafiltration method; assay type: ADME, cell-free; conditions: read-out: PPB (converted)
[5] = Volume of distribution at steady state in Beagle dog at 10 mg/kg, iv; assay type: ADME, organism-based, Canis lupus familiaris; parameters: dose 10 mg/kg, route intravenous; conditions: in vivo, read-out: Vdss
[6] = Oral bioavailability in Beagle dog at 10 mg/kg; assay type: ADME, organism-based, Canis lupus familiaris; conditions: in vivo
[7] = Cmax in Beagle dog at 10 mg/kg, po; assay type: ADME, organism-based, Canis lupus familiaris; parameters: dose 10 mg/kg, route oral; conditions: in vivo
[8] = Clearance in Beagle dog at 10 mg/kg, iv; assay type: ADME, organism-based, Canis lupus familiaris; parameters: dose 10 mg/kg, route intravenous; conditions: in vivo
[9] = Tmax in Beagle dog at 10 mg/kg, po; assay type: ADME, organism-based, Canis lupus familiaris; parameters: dose 10 mg/kg, route oral; conditions: in vivo
[10] = AUC (infinity) in Beagle dog at 10 mg/kg, po; assay type: ADME, organism-based, Canis lupus familiaris; parameters: time infinity, dose 10 mg/kg, route oral; conditions: plasma
[11] = target: Mitogen-activated protein kinase 9 (Homo sapiens) (UniProt P45984); experiment: Inhibition of JNK2 at 10 uM
[12] = Half life in cynomolgus monkey at 5 mg/kg, po; assay type: ADME, organism-based, Macaca fascicularis; parameters: dose 5 mg/kg, route oral; conditions: in vivo
Rattus norvegicus [13] = experiment: Inhibition of TNF-alpha-induced IL-6 production in po dosed rat plasma administered 30 mins before TNFalpha challenge measured after 2 hrs by ELISA; assay type: functional, organism-based
[14] = target: T1, Atypical kinase COQ8A, mitochondrial (Homo sapiens, UniProt Q8NI60); conditions: 10 uM
Description: Inhibition of ADCK3 at 10 uM

[15] = AUC (0 to last) in Hanover-Wistar rat at 5 mg/kg, po after 24 hrs; assay type: ADME, organism-based; parameters: dose 5 mg/kg, route oral, time 0 - last; conditions: plasma
[16] = target: T2, Ribosomal protein S6 kinase alpha-3 (Homo sapiens, UniProt P51812); experiment: Inhibition of RSK2
T2 sequence (P51812 whole entry): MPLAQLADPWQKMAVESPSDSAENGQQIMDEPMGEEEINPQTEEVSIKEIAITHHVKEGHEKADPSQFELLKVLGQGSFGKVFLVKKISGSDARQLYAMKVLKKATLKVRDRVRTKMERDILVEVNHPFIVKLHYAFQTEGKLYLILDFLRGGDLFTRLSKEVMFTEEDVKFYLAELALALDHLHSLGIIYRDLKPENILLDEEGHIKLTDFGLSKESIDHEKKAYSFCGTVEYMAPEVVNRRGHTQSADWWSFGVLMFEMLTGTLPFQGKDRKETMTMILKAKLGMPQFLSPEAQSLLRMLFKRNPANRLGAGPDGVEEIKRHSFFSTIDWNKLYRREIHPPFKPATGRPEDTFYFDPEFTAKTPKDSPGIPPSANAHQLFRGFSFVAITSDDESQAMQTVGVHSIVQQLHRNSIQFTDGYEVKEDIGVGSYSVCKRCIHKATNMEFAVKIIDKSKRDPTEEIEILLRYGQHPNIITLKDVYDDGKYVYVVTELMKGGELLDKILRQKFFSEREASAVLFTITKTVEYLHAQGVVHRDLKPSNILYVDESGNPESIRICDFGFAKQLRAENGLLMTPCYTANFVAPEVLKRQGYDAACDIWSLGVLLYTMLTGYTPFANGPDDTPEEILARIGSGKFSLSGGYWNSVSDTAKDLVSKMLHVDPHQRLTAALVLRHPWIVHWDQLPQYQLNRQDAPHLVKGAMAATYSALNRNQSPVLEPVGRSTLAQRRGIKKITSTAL

[17] = target: Mitogen-activated protein kinase 10 (Homo sapiens, UniProt P53779); conditions: 10 uM
Description: Inhibition of JNK3 at 10 uM

[18] = Oral bioavailability in Beagle dog at 5 mg/kg; assay type: ADME, organism-based, Canis lupus familiaris; conditions: in vivo
[19] = Tmax in Hanover-Wistar rat at 5 mg/kg, po; assay type: ADME, organism-based; parameters: dose 5 mg/kg, route oral; conditions: in vivo
[20] = Clearance in Beagle dog at 5 mg/kg, iv; assay type: ADME, organism-based, Canis lupus familiaris; parameters: dose 5 mg/kg, route intravenous; conditions: in vivo
[21] = target: T2, Ribosomal protein S6 kinase alpha-3; experiment: Inhibition of RSK2 at 10 uM
[22] = Tmax in cynomolgus monkey at 5 mg/kg, po; assay type: ADME, organism-based, Macaca fascicularis; parameters: dose 5 mg/kg, route oral; conditions: in vivo
Cytochrome P450 2C9 = Cytochrome P450 2C9 (Homo sapiens, UniProt P11712); experiment: Inhibition of human CYP2C9; assay type: ADME
[23] = target: T1, Atypical kinase COQ8A, mitochondrial; experiment: Inhibition of ADCK3
[24] = target: Ribosomal protein S6 kinase alpha-4 (Homo sapiens, UniProt O75676); experiment: Inhibition of RSK4 at 10 uM
[25] = Aqueous solubility of the compound in phosphate buffer at pH 6.5; assay type: physicochemical
[26] = Volume of distribution at steady state in Beagle dog at 5 mg/kg, iv; assay type: ADME, organism-based, Canis lupus familiaris; parameters: dose 5 mg/kg, route intravenous; conditions: in vivo, read-out: Vdss
[27] = Clearance in Hanover-Wistar rat at 5 mg/kg, iv; assay type: ADME, organism-based; parameters: dose 5 mg/kg, route intravenous; conditions: in vivo
[28] = target: Cyclin-G-associated kinase (Homo sapiens) (UniProt O14976); experiment: Inhibition of GAK at 10 uM
[29] = Cmax in Beagle dog at 5 mg/kg, po; assay type: ADME, organism-based, Canis lupus familiaris; parameters: dose 5 mg/kg, route oral; conditions: in vivo
[30] = target: Mitogen-activated protein kinase 11 (Homo sapiens, UniProt Q15759); experiment: Inhibition of P38beta at 10 uM
Mitogen-activated protein kinase 11, sequence (Q15759 whole entry): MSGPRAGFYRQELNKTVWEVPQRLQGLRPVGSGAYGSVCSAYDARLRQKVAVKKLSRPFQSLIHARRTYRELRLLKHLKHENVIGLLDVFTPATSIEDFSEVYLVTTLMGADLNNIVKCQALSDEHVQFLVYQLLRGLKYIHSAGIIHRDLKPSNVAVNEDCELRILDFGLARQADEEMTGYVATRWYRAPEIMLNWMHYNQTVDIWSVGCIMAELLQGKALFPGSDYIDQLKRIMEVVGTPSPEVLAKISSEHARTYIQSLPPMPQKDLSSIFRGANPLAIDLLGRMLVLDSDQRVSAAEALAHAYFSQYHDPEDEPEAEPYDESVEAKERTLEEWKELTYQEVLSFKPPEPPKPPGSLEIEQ

[31] = Permeability of the compound from apical to basolateral side of human Caco2 cells at 10 uM after 21 days; assay type: ADME, cell-based; conditions: Caco-2, read-out: permeability
[32] = Tmax in Beagle dog at 5 mg/kg, po; assay type: ADME, organism-based, Canis lupus familiaris; parameters: dose 5 mg/kg, route oral; conditions: in vivo
[33] = AUC (0 to last) in cynomolgus monkey at 5 mg/kg, po after 72 hrs; assay type: ADME, organism-based, Macaca fascicularis; parameters: dose 5 mg/kg, route oral, time 0 - last; conditions: plasma
[34] = Oral bioavailability in cynomolgus monkey at 5 mg/kg; assay type: ADME, organism-based, Macaca fascicularis; conditions: in vivo
[35] = Plasma protein binding in cynomolgus monkey by untrafiltration method; assay type: ADME, cell-free, Macaca fascicularis; conditions: read-out: PPB (converted)
Cytochrome P450 3A4 = Cytochrome P450 3A4 (Homo sapiens, UniProt P08684); experiment: Inhibition of human CYP3A4; assay type: ADME
[36] = target: T3, Epithelial discoidin domain-containing receptor 1 (Homo sapiens, UniProt Q08345); experiment: Inhibition of DDR1
T3 sequence (Q08345 whole entry, the tested form may be a part): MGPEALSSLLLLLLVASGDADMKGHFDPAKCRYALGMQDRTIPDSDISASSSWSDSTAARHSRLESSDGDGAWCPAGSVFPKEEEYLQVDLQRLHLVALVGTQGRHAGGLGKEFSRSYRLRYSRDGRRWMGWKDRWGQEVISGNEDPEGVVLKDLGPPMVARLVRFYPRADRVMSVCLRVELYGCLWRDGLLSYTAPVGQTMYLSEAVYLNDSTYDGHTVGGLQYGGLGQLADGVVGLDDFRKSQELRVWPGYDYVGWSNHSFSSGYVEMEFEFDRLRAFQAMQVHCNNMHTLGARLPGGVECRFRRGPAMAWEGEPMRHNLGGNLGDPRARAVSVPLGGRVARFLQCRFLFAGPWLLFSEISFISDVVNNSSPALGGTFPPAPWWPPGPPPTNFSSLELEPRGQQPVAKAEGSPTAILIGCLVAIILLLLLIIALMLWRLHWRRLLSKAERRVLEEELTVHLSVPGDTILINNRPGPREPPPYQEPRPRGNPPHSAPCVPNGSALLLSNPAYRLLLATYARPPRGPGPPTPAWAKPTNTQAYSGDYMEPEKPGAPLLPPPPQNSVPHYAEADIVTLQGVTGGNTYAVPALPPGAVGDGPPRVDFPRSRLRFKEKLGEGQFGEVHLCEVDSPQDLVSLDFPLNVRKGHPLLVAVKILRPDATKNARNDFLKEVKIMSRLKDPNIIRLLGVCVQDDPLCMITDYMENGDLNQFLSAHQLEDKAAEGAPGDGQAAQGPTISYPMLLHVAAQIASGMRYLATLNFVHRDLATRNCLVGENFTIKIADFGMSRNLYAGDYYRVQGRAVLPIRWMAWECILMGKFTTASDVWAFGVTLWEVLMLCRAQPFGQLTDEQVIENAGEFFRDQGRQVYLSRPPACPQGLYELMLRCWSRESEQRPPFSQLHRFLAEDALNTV

[37] = target: Serine/threonine-protein kinase 36 (Homo sapiens, UniProt Q9NRP7); experiment: Inhibition of STK36
Serine/threonine-protein kinase 36, sequence (Q9NRP7 whole entry): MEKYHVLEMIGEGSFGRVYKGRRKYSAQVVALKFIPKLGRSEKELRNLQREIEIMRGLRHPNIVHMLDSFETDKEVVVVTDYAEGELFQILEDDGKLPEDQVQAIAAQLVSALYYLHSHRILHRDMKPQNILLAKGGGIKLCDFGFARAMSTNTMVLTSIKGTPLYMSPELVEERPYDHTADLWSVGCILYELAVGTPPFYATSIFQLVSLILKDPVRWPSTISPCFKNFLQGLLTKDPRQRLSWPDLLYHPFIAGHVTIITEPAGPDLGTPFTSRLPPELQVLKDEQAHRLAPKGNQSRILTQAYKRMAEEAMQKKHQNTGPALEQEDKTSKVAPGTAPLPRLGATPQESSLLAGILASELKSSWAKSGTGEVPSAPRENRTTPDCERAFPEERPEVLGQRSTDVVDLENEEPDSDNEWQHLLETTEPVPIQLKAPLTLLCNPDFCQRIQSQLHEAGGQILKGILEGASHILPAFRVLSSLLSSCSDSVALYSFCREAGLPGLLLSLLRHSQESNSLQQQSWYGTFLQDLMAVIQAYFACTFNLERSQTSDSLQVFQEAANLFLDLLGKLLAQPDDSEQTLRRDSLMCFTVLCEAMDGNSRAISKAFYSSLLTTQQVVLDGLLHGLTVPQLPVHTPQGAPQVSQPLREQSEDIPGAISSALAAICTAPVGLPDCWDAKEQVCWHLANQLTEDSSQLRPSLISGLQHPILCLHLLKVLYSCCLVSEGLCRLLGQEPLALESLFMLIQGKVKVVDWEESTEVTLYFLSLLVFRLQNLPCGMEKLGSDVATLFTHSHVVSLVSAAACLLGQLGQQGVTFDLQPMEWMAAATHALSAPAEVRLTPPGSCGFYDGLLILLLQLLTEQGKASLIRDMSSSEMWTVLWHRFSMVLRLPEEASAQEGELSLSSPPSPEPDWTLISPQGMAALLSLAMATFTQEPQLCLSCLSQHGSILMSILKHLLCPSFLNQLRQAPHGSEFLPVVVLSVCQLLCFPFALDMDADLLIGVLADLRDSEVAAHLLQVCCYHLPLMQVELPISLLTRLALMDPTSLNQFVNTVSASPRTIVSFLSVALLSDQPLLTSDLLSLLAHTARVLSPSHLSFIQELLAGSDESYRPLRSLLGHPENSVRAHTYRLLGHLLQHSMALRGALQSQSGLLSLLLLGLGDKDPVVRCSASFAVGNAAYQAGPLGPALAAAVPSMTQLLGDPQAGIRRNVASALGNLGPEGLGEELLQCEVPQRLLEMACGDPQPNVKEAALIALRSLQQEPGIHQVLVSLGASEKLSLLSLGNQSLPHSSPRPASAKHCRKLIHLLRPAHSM

Rattus norvegicus [38] = experiment: Inhibition of LPS-induced TNFalpha production in rat serum at 3 mg/kg, po administered 30 mins before LPS challenge measured after […] by ELISA; assay type: functional
[39] = Volume of distribution at steady state in Hanover-Wistar rat at 5 mg/kg, iv; assay type: ADME, organism-based; parameters: dose 5 mg/kg, route intravenous; conditions: in vivo, read-out: Vdss
[40] = target: Mitogen-activated protein kinase 8 (Homo sapiens) (UniProt P45983); experiment: Inhibition of JNK1 at 10 uM
Mitogen-activated protein kinase 8 (Homo sapiens), sequence (P45983 whole entry, canonical isoform): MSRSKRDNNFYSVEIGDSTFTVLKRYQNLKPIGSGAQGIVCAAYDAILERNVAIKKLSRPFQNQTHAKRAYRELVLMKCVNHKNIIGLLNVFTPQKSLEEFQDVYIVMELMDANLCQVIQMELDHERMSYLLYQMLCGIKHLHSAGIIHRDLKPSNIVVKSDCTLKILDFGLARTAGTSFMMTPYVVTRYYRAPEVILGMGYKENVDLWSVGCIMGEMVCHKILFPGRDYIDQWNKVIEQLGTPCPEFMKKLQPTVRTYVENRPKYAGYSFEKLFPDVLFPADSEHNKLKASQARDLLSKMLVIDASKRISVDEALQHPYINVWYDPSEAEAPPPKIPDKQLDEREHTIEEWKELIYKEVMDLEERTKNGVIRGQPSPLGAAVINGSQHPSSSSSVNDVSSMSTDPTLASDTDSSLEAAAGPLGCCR

[41] = target: Casein kinase I isoform epsilon (Homo sapiens, UniProt P49674); conditions: 10 uM
Casein kinase I isoform epsilon, sequence (P49674 whole entry, looked up, canonical isoform): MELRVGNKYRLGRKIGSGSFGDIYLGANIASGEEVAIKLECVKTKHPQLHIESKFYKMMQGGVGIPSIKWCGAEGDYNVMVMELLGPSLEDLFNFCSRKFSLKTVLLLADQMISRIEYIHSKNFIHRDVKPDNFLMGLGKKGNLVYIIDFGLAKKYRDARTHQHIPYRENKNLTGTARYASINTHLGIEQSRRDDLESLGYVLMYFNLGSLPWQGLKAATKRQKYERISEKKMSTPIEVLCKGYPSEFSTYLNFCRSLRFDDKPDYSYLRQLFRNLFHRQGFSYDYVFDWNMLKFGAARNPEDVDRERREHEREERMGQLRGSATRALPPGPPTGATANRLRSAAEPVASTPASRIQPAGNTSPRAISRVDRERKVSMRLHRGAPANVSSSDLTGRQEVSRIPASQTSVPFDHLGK
Description: Inhibition of CSNK1epsilon at 10 uM

[42] = Cmax in Hanover-Wistar rat at 5 mg/kg, po; assay type: ADME, organism-based; parameters: dose 5 mg/kg, route oral; conditions: in vivo
[43] = Clearance in cynomolgus monkey at 5 mg/kg, iv; assay type: ADME, organism-based, Macaca fascicularis; parameters: dose 5 mg/kg, route intravenous; conditions: in vivo
[44] = target: Serine/threonine-protein kinase NLK (Homo sapiens) (UniProt Q9UBE8); experiment: Inhibition of NLK at 10 uM
Rattus norvegicus [45] = experiment: Inhibition of LPS-induced IL-6 production in po dosed rat serum administered 30 mins before LPS challenge measured after […] by ELISA; assay type: functional, organism-based
[46] = Half life in Hanover-Wistar rat at 5 mg/kg, po; assay type: ADME, organism-based; parameters: dose 5 mg/kg, route oral; conditions: in vivo
[47] = target: Serine/threonine-protein kinase 36 (Homo sapiens) (UniProt Q9NRP7); conditions: 10 uM
Serine/threonine-protein kinase 36 (Homo sapiens), sequence (Q9NRP7 whole entry): as the sequence (Q9NRP7 whole entry) above
Description: Inhibition of STK36 at 10 uM

[48] = Volume of distribution at steady state in cynomolgus monkey at 5 mg/kg, iv; assay type: ADME, organism-based, Macaca fascicularis; parameters: dose 5 mg/kg, route intravenous; conditions: in vivo, read-out: Vdss
Cytochrome P450 1A2 = Cytochrome P450 1A2 (Homo sapiens, UniProt P05177); experiment: Inhibition of human CYP1A2; assay type: ADME
[49] = AUC (0 to last) in Beagle dog at 5 mg/kg, po; assay type: ADME, organism-based, Canis lupus familiaris; parameters: dose 5 mg/kg, route oral, time 0 - last; conditions: plasma
[50] = Cmax in cynomolgus monkey at 5 mg/kg, po; assay type: ADME, organism-based, Macaca fascicularis; parameters: dose 5 mg/kg, route oral; conditions: in vivo
[51] = Permeability of the compound from basolateral to apical side of human Caco2 cells at 10 uM after 21 days; assay type: ADME, cell-based; conditions: Caco-2, read-out: permeability
Rattus norvegicus [52] = experiment: Analgesic activity in po dosed rat inflammatory yeast hyperalgesia model assessed as increase in tolerance to pressure; assay type: functional, organism-based
[53] = Half life in Beagle dog at 5 mg/kg, po; assay type: ADME, organism-based, Canis lupus familiaris; parameters: dose 5 mg/kg, route oral; conditions: in vivo
Cytochrome P450 2C19 = Cytochrome P450 2C19 (Homo sapiens, UniProt P33261); experiment: Inhibition of human CYP2C19; assay type: ADME
[54] = Oral bioavailability in Hanover-Wistar rat at 5 mg/kg; assay type: ADME, organism-based; conditions: in vivo
[55] = target: T3, Epithelial discoidin domain-containing receptor 1; experiment: Inhibition of DDR1 at 10 uM
[56] = target: Cyclin-G-associated kinase (Homo sapiens, UniProt O14976); experiment: Inhibition of GAK
Cytochrome P450 2D6 = Cytochrome P450 2D6 (Homo sapiens, UniProt P10635); experiment: Inhibition of human CYP2D6; assay type: ADME
Cytochrome P450 2D6, sequence (P10635 whole entry): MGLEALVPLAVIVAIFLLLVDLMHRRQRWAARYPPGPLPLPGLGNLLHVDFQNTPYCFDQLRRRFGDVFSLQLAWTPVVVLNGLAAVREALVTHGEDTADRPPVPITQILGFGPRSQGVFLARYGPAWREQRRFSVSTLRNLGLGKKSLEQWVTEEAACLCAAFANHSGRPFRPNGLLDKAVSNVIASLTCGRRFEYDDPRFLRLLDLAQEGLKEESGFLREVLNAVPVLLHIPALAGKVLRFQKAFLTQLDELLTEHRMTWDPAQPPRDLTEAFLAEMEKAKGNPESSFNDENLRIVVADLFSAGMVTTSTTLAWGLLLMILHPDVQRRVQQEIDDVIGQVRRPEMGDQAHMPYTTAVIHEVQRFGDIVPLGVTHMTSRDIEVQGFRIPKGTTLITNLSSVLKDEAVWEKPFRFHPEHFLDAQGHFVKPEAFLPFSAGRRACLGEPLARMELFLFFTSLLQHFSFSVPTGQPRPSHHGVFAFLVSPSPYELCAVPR

In the case of `Cl.Cn1c(=O)c(Oc2ccc(F)cc2F)cc2cnc(NC3CCOCC3)nc21` [R-1487 HYDROCHLORIDE], the half-life [1] is reported as 2.23 h, the AUC(0-inf) [2] is reported as 2350 ng·h/mL and the fraction unbound [3] is reported as 0.096. For the same compound, the fraction unbound [4] was 0.044, the Vd [5] was 4.65 L/kg and the bioavailability [6] was 10.3%. The Cmax [7] was 110 ng/mL, the clearance [8] was 54.2 mL/min/kg and the Tmax [9] was 0.5 h. For the same compound, the AUC(0-inf) [10] was 310 ng·h/mL.

In the case of `Cn1c(=O)c(Oc2ccc(F)cc2F)cc2cnc(NC(CCO)CCO)nc21` [PAMAPIMOD], the inhibition [11] is reported as > 85%, the half-life [12] is reported as 13.8 h and the EC50 (Rattus norvegicus [13]) is reported as 270 nM. The ED50 (Rattus norvegicus [13]; po) was 1.1 mg/kg, the inhibition [14] was > 85% and the AUC(0-t) at 24 h [15] was 3130 ng·h/mL. The fraction unbound [4] was 0.171, the Kd [16] was 300 nM and the inhibition [17] was > 85%. The bioavailability [18] was 78.2%, the Tmax [19] was 0.5 h and the clearance [20] was 12.5 mL/min/kg. For the same compound, the inhibition [21] was > 85%, the Tmax [22] was 1.5 h and the IC50 (Cytochrome P450 2C9) was > 29000 nM. The Kd [23] was > 1000 nM, the inhibition [24] was > 85% and the solubility [25] was 170 µg/mL (≈ 418 µM). The Vd [26] was 12.7 L/kg, the clearance [27] was 21 mL/min/kg and the inhibition [28] was > 85%. For the same compound, the Cmax [29] was 1380 ng/mL, the inhibition [30] was > 85% and the Papp A→B at 10 µM [31] was 2.74 ×10⁻⁶ cm/s. For the same compound, the Tmax [32] was 0.67 h, the AUC(0-t) at 72 h [33] was 9410 ng·h/mL and the bioavailability [34] was > 100%. The fraction unbound [35] was 0.146, the IC50 (Cytochrome P450 3A4) was > 29000 nM and the Kd [36] was > 1000 nM. For the same compound, the Kd [37] was > 1000 nM, the inhibition in vivo at 3 mg/kg (Rattus norvegicus [38]) was 77% and the Vd [39] was 3.56 L/kg. The inhibition [40] was > 85%, the inhibition [41] was > 85% and the Cmax [42] was 1340 ng/mL. For the same compound, the clearance [43] was 10.8 mL/min/kg, the inhibition [44] was > 85% and the EC50 (Rattus norvegicus [45]) was 50 nM. For the same compound, the ED50 (Rattus norvegicus [45]; po) was 0.1 mg/kg, the half-life [46] was 4.04 h and the inhibition [47] was > 85%. The Vd [48] was 20.6 L/kg, the IC50 (Cytochrome P450 1A2) was > 29000 nM and the AUC(0-t) [49] was 5220 ng·h/mL. For the same compound, the Cmax [50] was 1860 ng/mL, the Papp B→A at 10 µM [51] was 22.6 ×10⁻⁶ cm/s and the Activity (Rattus norvegicus [52]) was “Dose-dependent effect”. For the same compound, the EC50 (Rattus norvegicus [52]) was 4300 nM, the ED50 (Rattus norvegicus [52]; po) was 20.4 mg/kg and the half-life [53] was 9.18 h. For the same compound, the IC50 (Cytochrome P450 2C19) was > 29000 nM, the bioavailability [54] was 80.1% and the inhibition [55] was > 85%. The Kd [56] was > 1000 nM and the IC50 (Cytochrome P450 2D6) was > 29000 nM.
